Patent publication US9242984B2, “Pyrazolyl derivatives as Syk inhibitors” (Merck Sharp & Dohme Corp., priority 2012, dated 2016)

Target: T1, recombinant human Syk (GST-hSyk fusion protein) (Homo sapiens, UniProt P43405)
T1 construct: purchased Carna Biosciences 08-176
Test: Homogeneous Time-Resolved Fluorescence (HTRF) assay for the recombinant human Syk enzyme
Format: biochemical
Details: IC50 class; 10-dose titration, 25 μM ATP; read-out: rhSYK Activity
Method in brief: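 IC50 came from a four-parameter fit over ten doses, 10 μM to 0.508 nM, with HTRF read-out (Eu-anti-pTyr antibody, SA-APC, EDTA stop, 30 min). The enzyme, 5 pM GST-hSyk, met compound for 10 min, then phosphorylated 250 nM biotin-peptide with 25 μM ATP and 5 mM Mg for 45 min at room temperature, pH 7.5.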

Structure (SMILES)	IC50
Cc1cc(Nc2nccc(C(F)(F)F)n2)cc(-c2cnn(CC3OC(=O)NC3C(C)C)c2)c1 (single isomer, unassigned) [Example 23.3, 4-(1-methylethyl)-5-{[4-(3-methyl-5-{[4-(trifluoromethyl)pyrimidin-2-yl]amino}phenyl)-1H-pyrazol-1-yl]methyl}-1,3-oxazolidin-2-one]	≤ 100 nM
Cc1cc(Nc2nccc(C)n2)cc(-c2cnn(CC3OC(=O)NC3C)c2)c1 (single isomer, unassigned) [Example 23.7, 4-methyl-5-[(4-{3-methyl-5-[(4-methylpyrimidin-2-yl)amino]phenyl}-1H-pyrazol-1-yl)methyl]-1,3-oxazolidin-2-one]	≤ 100 nM
Cc1cc(Nc2nccc(C(F)F)n2)cc(-c2cnn(CC(C)(O)CO)c2)c1 (single isomer, unassigned) [Example 25.5, 3-[4-(3-{[4-(difluoromethyl)pyrimidin-2-yl]amino}-5-methylphenyl)-1H-pyrazol-1-yl]-2-methylpropane-1,2-diol]	≤ 100 nM
